The supplement of paper PMC11451515

Legend:
Conditions in all cases: 48 h
SEM cells [1] = experiment: cell viability relative to DMSO control; higher = less cytotoxic
How it was run: (§1)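 Cells were incubated for 48 h at 37°C before CellTiter-Glo One luminescence was read. The cells were NOMO1 or SEM (500 cells/well) or P12-Ichikawa (1000 cells/well) leukemia cells, adapted for at least four passages in each medium and seeded in 1536-well plates (5 μl). Dosing used library compounds in DMSO applied by pin over 11 threefold points, 47 μM to 0.79 nM. Viability is the per-plate percentage of DMSO wells, with cell-free wells as background.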

NOMO1 [2] = experiment: as above
How it was run: as §1

P12-Ichikawa [3] = experiment: as above
How it was run: as §1

SEM cells [4] = experiment: AUC of viability dose-response curve (% viability x log10 dose units); higher = less sensitive
How it was run: (§2)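 Medium-adapted leukemia cells in 1536-well plates, at 500 or 1000 cells/well, were incubated for 48 h at 37°C with library compounds in DMSO at 11 threefold doses from 47 μM to 0.79 nM. CellTiter-Glo One luminescence normalised per plate to DMSO and cell-free wells was fitted with a four-parameter log-logistic model over log10 doses. Area under the curve was integrated from this fit by trapezoidal rule, with curves beyond full viability scaled and failed quality-control curves removed.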

NOMO1 [5] = experiment: as above
How it was run: as §2

P12-Ichikawa [6] = experiment: as above
How it was run: as §2

CC(=O)[C@H]1CC[C@H]2[C@@H]3C/C=C4/C[C@@H](O)CC[C@]4(C)[C@H]3CC[C@]12C
cell viability [%]
Conditions	NOMO1 [2]	P12-Ichikawa [3]	SEM cells [1]
HPLM + 10% dialyzed FBS, 0.000781 µM	129	120	100
HPLM + 10% dialyzed FBS, 0.00234 µM	121	124	91.7
HPLM + 10% dialyzed FBS, 0.00702 µM	125	114	96.8
HPLM + 10% dialyzed FBS, 0.0211 µM	115	116	103
HPLM + 10% dialyzed FBS, 0.0632 µM	131	112	113
HPLM + 10% dialyzed FBS, 0.19 µM	129	120	115
HPLM + 10% dialyzed FBS, 0.569 µM	138	124	114
HPLM + 10% dialyzed FBS, 1.71 µM	123	115	106
HPLM + 10% dialyzed FBS, 5.12 µM	119	114	113
HPLM + 10% dialyzed FBS, 15.4 µM	104	114	114
HPLM + 10% dialyzed FBS, 46.1 µM	108	110	115
RPMI 5 mM glucose + 10% FBS, 0.000781 µM	121	–	113
RPMI 5 mM glucose + 10% FBS, 0.00234 µM	113	–	116
RPMI 5 mM glucose + 10% FBS, 0.00702 µM	119	–	126
RPMI 5 mM glucose + 10% FBS, 0.0211 µM	111	–	117
RPMI 5 mM glucose + 10% FBS, 0.0632 µM	116	–	124
RPMI 5 mM glucose + 10% FBS, 0.19 µM	117	–	116
RPMI 5 mM glucose + 10% FBS, 0.569 µM	109	–	126
RPMI 5 mM glucose + 10% FBS, 1.71 µM	121	–	121
RPMI 5 mM glucose + 10% FBS, 5.12 µM	110	–	123
RPMI 5 mM glucose + 10% FBS, 15.4 µM	111	–	118
RPMI 5 mM glucose + 10% FBS, 46.1 µM	119	–	119
RPMI 5 mM glucose + 10% dialyzed FBS, 0.000781 µM	121	112	–
RPMI 5 mM glucose + 10% dialyzed FBS, 0.00234 µM	118	120	–
RPMI 5 mM glucose + 10% dialyzed FBS, 0.00702 µM	139	129	–
RPMI 5 mM glucose + 10% dialyzed FBS, 0.0211 µM	128	112	–
RPMI 5 mM glucose + 10% dialyzed FBS, 0.0632 µM	129	124	–
RPMI 5 mM glucose + 10% dialyzed FBS, 0.19 µM	114	115	–
RPMI 5 mM glucose + 10% dialyzed FBS, 0.569 µM	132	126	–
RPMI 5 mM glucose + 10% dialyzed FBS, 1.71 µM	121	125	–
RPMI 5 mM glucose + 10% dialyzed FBS, 5.12 µM	118	112	–
RPMI 5 mM glucose + 10% dialyzed FBS, 15.4 µM	116	104	–
RPMI 5 mM glucose + 10% dialyzed FBS, 46.1 µM	97.7	103	–

AUC of viability dose-response curve
Conditions	NOMO1 [5]	P12-Ichikawa [6]	SEM cells [4]
HPLM + 10% dialyzed FBS	463	462	455
RPMI 5 mM glucose + 10% FBS	472	461	470
RPMI 5 mM glucose + 10% dialyzed FBS	462	463	460

CCNC(=O)c1noc(-c2cc(C(C)C)c(O)cc2O)c1-c1ccc(CN2CCOCC2)cc1
cell viability [%]
Conditions	NOMO1 [2]	P12-Ichikawa [3]	SEM cells [1]
HPLM + 10% dialyzed FBS, 0.000781 µM	91.6	103	90.6
HPLM + 10% dialyzed FBS, 0.00234 µM	98.5	111	97.5
HPLM + 10% dialyzed FBS, 0.00702 µM	109	112	92.4
HPLM + 10% dialyzed FBS, 0.0211 µM	121	113	103
HPLM + 10% dialyzed FBS, 0.0632 µM	76.2	109	31.8
HPLM + 10% dialyzed FBS, 0.19 µM	19.2	52	21.1
HPLM + 10% dialyzed FBS, 0.569 µM	24.1	53.9	20.2
HPLM + 10% dialyzed FBS, 1.71 µM	20	50.1	20.9
HPLM + 10% dialyzed FBS, 5.12 µM	20.9	52	19.6
HPLM + 10% dialyzed FBS, 15.4 µM	19.3	45.8	17.3
HPLM + 10% dialyzed FBS, 46.1 µM	21.2	44.2	14.2
RPMI 5 mM glucose + 10% FBS, 0.000781 µM	119	111	95.2
RPMI 5 mM glucose + 10% FBS, 0.00234 µM	108	116	102
RPMI 5 mM glucose + 10% FBS, 0.00702 µM	123	115	102
RPMI 5 mM glucose + 10% FBS, 0.0211 µM	116	117	102
RPMI 5 mM glucose + 10% FBS, 0.0632 µM	92.6	97.4	27.1
RPMI 5 mM glucose + 10% FBS, 0.19 µM	13.5	41	21.6
RPMI 5 mM glucose + 10% FBS, 0.569 µM	13.7	43.5	19.8
RPMI 5 mM glucose + 10% FBS, 1.71 µM	15.4	39.6	19.6
RPMI 5 mM glucose + 10% FBS, 5.12 µM	16	47.2	19.4
RPMI 5 mM glucose + 10% FBS, 15.4 µM	16	40.1	14.1
RPMI 5 mM glucose + 10% FBS, 46.1 µM	19.3	35.8	7.66
RPMI 5 mM glucose + 10% dialyzed FBS, 0.000781 µM	107	96.9	101
RPMI 5 mM glucose + 10% dialyzed FBS, 0.00234 µM	128	112	95.7
RPMI 5 mM glucose + 10% dialyzed FBS, 0.00702 µM	114	108	89.5
RPMI 5 mM glucose + 10% dialyzed FBS, 0.0211 µM	131	115	99.5
RPMI 5 mM glucose + 10% dialyzed FBS, 0.0632 µM	96.4	100	36.1
RPMI 5 mM glucose + 10% dialyzed FBS, 0.19 µM	18.9	42.1	24.9
RPMI 5 mM glucose + 10% dialyzed FBS, 0.569 µM	17.3	43.8	26.4
RPMI 5 mM glucose + 10% dialyzed FBS, 1.71 µM	20.3	41.1	22.6
RPMI 5 mM glucose + 10% dialyzed FBS, 5.12 µM	17.4	44.9	18.6
RPMI 5 mM glucose + 10% dialyzed FBS, 15.4 µM	19.5	39.4	19.2
RPMI 5 mM glucose + 10% dialyzed FBS, 46.1 µM	22.4	37.3	11.2

AUC of viability dose-response curve
Conditions	NOMO1 [5]	P12-Ichikawa [6]	SEM cells [4]
HPLM + 10% dialyzed FBS	253	333	225
RPMI 5 mM glucose + 10% FBS	240	302	224
RPMI 5 mM glucose + 10% dialyzed FBS	248	312	232
